Results reported in patent US7884129B2, “Composition comprising the alcohol compound isolated from the extract of cucurbitaceae family plant having anti-adipogenic and anti-obesity activity” (Helixir Co., Ltd., priority 2003, dated 2011).

Columns and labels:
Preadipocytes (3T3-L1) = assay: Inhibition of adipocyte differentiation and triglyceride level (Oil Red O staining); assay type: cell-based
Method: To determine the inhibiting activity of the compound prepared by Examples 1, i.e., dehydrodiconiferylalcohol (DHCA), on the adipocytes differentiation and triglyceride level, following experiment was performed.
Preadipocytes (3T3-L1) purchased from ATCC (American […], USA) were cultured in RPMI medium containing 10% FBS and MDI cocktail (isobutylmethylxanthine, dexamethasone, insulin) was added thereto for differentiating into mature adipocytes. After two days, the medium was replaced and treated with only insulin. Thereafter, the medium was replaced and equal concentration of insulin was treated again every other day. DHCA ranging from 10 to 1000 ug/ml of the concentrations was treated when the adipocyte differentiation was induced and equal concentration of the DHCA was treated at every replacement of the medium. Troglitazone (Sigma Co.) and 10 uM SB203580 (Sigma Co.) were treated as control groups and 0.01% ethanol was used as a vehicle control. After eight days lapsed, the accumulated fat within differentiated cell was stained with Oil Red 0 staining reagent and the absorbance was determined with optical density qualitatively at 490 nm. The inhibition percentage (%) was calculated by following Empirical Formula 1. The Inhibition Percentage (%)=[O.D. of test group]/[O.D. value of control group]×100 Empirical Formula 1

PPAR α = target: T1, PPAR α (Homo sapiens, UniProt Q07869); assay: PPAR α activation, tkPPRE-luciferase reporter in transfected CV-1 cells; assay type: cell-based; conditions: 24 hours
T1 construct: expressed in transfected cells; host or cells: CV-1 cells
T1 sequence (Q07869 1-468): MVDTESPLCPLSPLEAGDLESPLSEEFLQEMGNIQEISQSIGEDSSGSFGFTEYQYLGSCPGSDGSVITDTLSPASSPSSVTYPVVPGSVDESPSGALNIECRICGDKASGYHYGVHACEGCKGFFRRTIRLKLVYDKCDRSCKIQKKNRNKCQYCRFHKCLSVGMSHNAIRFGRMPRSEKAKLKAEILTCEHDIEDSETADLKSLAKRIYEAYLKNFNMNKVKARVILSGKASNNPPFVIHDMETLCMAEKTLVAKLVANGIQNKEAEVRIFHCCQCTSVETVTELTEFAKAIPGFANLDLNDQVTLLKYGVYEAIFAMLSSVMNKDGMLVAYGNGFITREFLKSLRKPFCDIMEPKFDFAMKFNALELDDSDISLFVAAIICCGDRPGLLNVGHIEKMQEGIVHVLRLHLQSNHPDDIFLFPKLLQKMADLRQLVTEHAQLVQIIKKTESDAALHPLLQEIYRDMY
T1 sequence (P19793 1-462 partner): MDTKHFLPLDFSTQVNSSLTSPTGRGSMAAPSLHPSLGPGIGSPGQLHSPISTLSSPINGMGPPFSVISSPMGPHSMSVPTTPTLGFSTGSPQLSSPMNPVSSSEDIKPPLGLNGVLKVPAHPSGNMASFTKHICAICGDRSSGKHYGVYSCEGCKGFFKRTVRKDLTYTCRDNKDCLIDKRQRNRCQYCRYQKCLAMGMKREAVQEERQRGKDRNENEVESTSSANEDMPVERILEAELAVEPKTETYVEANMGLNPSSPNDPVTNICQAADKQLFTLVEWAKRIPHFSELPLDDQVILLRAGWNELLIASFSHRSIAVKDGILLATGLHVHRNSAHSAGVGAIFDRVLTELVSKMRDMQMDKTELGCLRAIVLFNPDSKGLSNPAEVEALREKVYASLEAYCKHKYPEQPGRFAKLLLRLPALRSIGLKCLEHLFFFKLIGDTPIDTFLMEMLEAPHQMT
Method: To determine the regulating activity of the compound prepared by Example 1 on the PPAR α activation, following experiment was performed.
CV-1 cells were transiently cotransfected with both tkPPRE-luciferase and pCMV-PPAR α, together with pCMV-RXR and pCMV-β-Gal as a transfection control. Cells were treated with DHCA or various fractions, i.e. hexane and ethylacetate fractions obtained from this Cucurbitaceae family plant extract at the concentration of 100 ug/ml. Cells were also treated with DMSO or fenofibrate (100 uM, Sigma Co.), which is a well known agonist of PPARα. After 24 hours, cell lysates were prepared for the luciferase assay, and the activities were normalized to β-Gal activities.

## COc1cc(C2Oc3c(OC)cc(/C=C/CO)cc3C2CO)ccc1O (stereo not shown) [DHCA, dehydrodiconiferyl alcohol]
Preadipocytes (3T3-L1); 3T3-L1, SB203580 10 uM as control
  anti-adipogenic activity compared with SB203580: comparable to that of SB203580
Preadipocytes (3T3-L1); 3T3-L1 induced with MDI, 8 days, Oil Red O, O.D. 490 nm, DHCA 10 to 1000 ug/ml
  level of produced triglycerides and adipocytes differentiation: significantly reduced in a dose dependent manner
PPAR α; 100 ug/ml, normalized to β-Gal
  increase of luciferase activity as compared with control: 10 folds
PPAR α; DHCA 100 ug/ml vs fenofibrate 100 uM
  magnitude of PPAR α activation compared with fenofibrate: higher than that of fenofibrate treated cells
